According to publication PMC6643344, “Studying the Possibilities of Using 2-Halogen-Substituted Acetamides As Acyl Donors in Penicillin Acylase-Catalyzed Reactions” (Acta Naturae, 2019):

Biological target: T1, penicillin acylase from Escherichia coli (Escherichia coli, UniProt P06875)
T1 construct: gene pac; free enzyme in solution; mature alpha/beta heterodimer cut from one precursor (known biology)
Test: first-order inactivation, residual activity with NIPAB at […] nm
Format: biochemical
Settings: inactivation rate constant (given as kin x 10^4) at 0.1 M compound; 0.1 M potassium phosphate pH 7.5; 25°C; active site, turnover-linked; also a substrate

T1 sequence (P06875 27-235, looked up): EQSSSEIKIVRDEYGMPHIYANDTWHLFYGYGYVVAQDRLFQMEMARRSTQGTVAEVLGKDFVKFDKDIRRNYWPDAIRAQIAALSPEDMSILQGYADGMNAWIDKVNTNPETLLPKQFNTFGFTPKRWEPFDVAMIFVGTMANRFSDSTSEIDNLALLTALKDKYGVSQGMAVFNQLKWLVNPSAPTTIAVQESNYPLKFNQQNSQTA
T1 sequence (P06875 290-846, looked up): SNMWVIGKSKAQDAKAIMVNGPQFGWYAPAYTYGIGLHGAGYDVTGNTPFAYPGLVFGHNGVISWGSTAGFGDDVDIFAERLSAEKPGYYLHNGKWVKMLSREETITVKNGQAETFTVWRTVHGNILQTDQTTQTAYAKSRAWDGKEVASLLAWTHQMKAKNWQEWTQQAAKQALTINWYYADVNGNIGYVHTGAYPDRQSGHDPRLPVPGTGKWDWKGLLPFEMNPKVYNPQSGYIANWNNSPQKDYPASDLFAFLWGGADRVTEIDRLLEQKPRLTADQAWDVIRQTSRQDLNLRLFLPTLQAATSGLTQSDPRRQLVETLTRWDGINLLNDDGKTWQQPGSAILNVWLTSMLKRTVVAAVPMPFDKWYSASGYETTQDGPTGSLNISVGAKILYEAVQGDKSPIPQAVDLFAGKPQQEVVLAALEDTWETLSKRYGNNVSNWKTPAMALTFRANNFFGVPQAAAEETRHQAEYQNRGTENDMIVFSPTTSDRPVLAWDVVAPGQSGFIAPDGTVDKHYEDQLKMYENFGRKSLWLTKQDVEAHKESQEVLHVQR

kin.10^4, min^-1	SMILES
47 ± 2 min^-1	NC(=O)CBr [2-bromoacetamide]
1.1 ± 0.1 min^-1	NC(=O)CCl [2-chloroacetamide]

SMILES	kin.10^4, min^-1
NC(=O)CI [2-iodoacetamide]	364 ± 34 min^-1
